Source: ChEMBL document CHEMBL2074086, “Cloning, in vitro expression, and tissue distribution of a human prostaglandin transporter cDNA(hPGT)” (J Clin Invest, 1996)

Target: Solute carrier organic anion transporter family member 2A1 (Homo sapiens, UniProt Q92959)
Experiment: TP_TRANSPORTER: uptake in PGT-expressing HeLa cells
Format: functional, cell-based

| Compound | K1/2 [µM] | Activity |
| --- | --- | --- |
| CCCCC[C@H](O)/C=C/[C@@H]1[C@@H](C/C=C\CCCC(=O)O)[C@@H](O)C[C@H]1O [DINOPROST] | 0.092 |  |
| CC#CCC(C)[C@H](O)/C=C/[C@@H]1[C@H]2C/C(=C/CCCC(=O)O)C[C@H]2C[C@H]1O (stereo partly specified) [ILOPROST] |  | is not a substrate [-] |
| CCCCC[C@H](O)/C=C/[C@H]1C(=O)C[C@H](O)[C@@H]1C/C=C\CCCC(=O)O [PROSTAGLANDIN D2] | 0.083 |  |
| CCCCC[C@H](O)/C=C/[C@H]1OC(O)C[C@H](O)[C@@H]1C/C=C\CCCC(=O)O (stereo partly specified) [THROMBOXANE B2] | 0.182 |  |

Second part, the compound after the results:

| K1/2 [µM] | Activity | Compound |
| --- | --- | --- |
| 0.082 |  | CCCCC[C@H](O)/C=C/[C@H]1[C@H](O)CC(=O)[C@@H]1CCCCCCC(=O)O [ALPROSTADIL] |
| 0.1 |  | CCCCC[C@H](O)/C=C/[C@H]1[C@H](O)CC(=O)[C@@H]1C/C=C\CCCC(=O)O [DINOPROSTONE] |
